Patent US10022326B2, “Liposomal compositions of epoxyketone-based proteasome inhibitors” (ONYX THERAPEUTICS, INC., priority 2012, dated 2018)

Molecular target: T1, chymotrypsin-like activity of the proteasome (Mus musculus, UniProt O55234)
T1 construct: measurement of proteasome activity in whole blood (primarily erythrocytes); from tissue; host or cells: whole blood (primarily erythrocytes), adrenal, liver and heart of BALB/C mice
T1 sequence (O55234 60-264): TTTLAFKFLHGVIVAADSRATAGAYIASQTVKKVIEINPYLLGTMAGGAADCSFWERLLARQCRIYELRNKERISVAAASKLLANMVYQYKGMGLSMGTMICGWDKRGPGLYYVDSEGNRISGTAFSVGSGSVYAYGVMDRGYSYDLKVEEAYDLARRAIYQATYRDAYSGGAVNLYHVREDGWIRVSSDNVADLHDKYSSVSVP
Assay: Pharmacodynamic response: proteasome activity in whole blood, adrenal, liver and heart (LLVY-AMC substrate)
Format: in vivo, BALB/C mice
Conditions: mice, single i.v. dose, whole blood (primarily erythrocytes), up to 24 hours
Protocol: The pharmacodynamic response of carfilzomib formulated in SBE-B-CD (CFZ SBE-B-CD) (using a non-liposomal, injectable composition of carfilzomib formulated in 10% sulfobutylether beta cyclodextrin (SBE-B-CD), 10 mM Citrate, pH 3.5 (see, e.g., U.S. Patent Publication Nos. 2011/0236428)), empty liposomes (Composition D), liposomes comprising CFZ (L-CFZ, Composition C), and pegylated liposomes comprising (pL-CFZ, Composition E) was evaluated in BALB/C mice following a single intravenous bolus administration.
The mice (three mice per time point) were administered a dose of 10 mg/kg in a dose volume of 5 mL/kg. […] The pharmacodynamic response was determined by measurement of proteasome activity in whole blood (primarily erythrocytes) (see FIG. 2A), adrenal (see FIG. 2B), liver (see FIG. 2C), and heart (see FIG. 2D), using a fluorogenic substrate (LLVY-AMC [Leu-Leu-Val-Tyr-AMC {AMC=7-amido 4-methylcoumarin}]; as described by Lightcap E S, McCormack T A, Pien C S, et al., Clin. Chem. 46:673-683 (2000)) to quantitate the chymotrypsin-like activity of the proteasome. […] Three tissue samples were evaluated per time point for each tissue from each mouse.
The pharmacodynamic response of liposomal compositions comprising liposomes comprising an aqueous core loaded with CFZ complexed with SBE-B-CD was evaluated in BALB/C mice following a single intravenous bolus administration. […]

recovery of proteasome activity in blood: no recovery
Compound: CC(C)C[C@H](NC(=O)[C@H](CCc1ccccc1)NC(=O)CN1CCOCC1)C(=O)N[C@@H](Cc1ccccc1)C(=O)N[C@@H](CC(C)C)C(=O)[C@@]1(C)CO1 [carfilzomib]
